The numbers were not newly measured in patent publication US11826586B2, “Method for dyeing keratin material, comprising the use of an organic C1-C6-alkoxy-silane and an alkalising agent” (Henkel AG & Co. KGaA, priority 2019, dated 2023), which cites them from elsewhere.

For the data set the following is noted: 25° C.

As for `O=C(O)C1=NN(c2ccc(S(=O)(=O)O)cc2)C(=O)C1N=Nc1ccc(S(=O)(=O)O)cc1` (stereo not shown) [Acid Yellow 23, 4,5-dihydro-5-oxo-1-(4-sulfophenyl)-4-((4-sulfophenyl)azo)-1H-pyrazole-3-carboxylic acid], the “solubility in water (in words)” value was “highly soluble”.
Turning to `CCN(Cc1cccc(S(=O)(=O)O)c1)c1ccc(C(=C2C=CC(=[N+](CC)Cc3cccc(S(=O)(=O)O)c3)C=C2)c2ccccc2S(=O)(=O)[O-])cc1` [Acid Blue 9], the solubility in water entry is listed as “more than 20 % by weight”.
As to `O=[N+]([O-])c1cc([N+](=O)[O-])c2ccc(S(=O)(=O)O)cc2c1O` [Acid Yellow 9, 8-hydroxy-5,7-dinitro-2-naphthalenesulfonic acid], the solubility in water entry is on record as “above 40 g/L”.
Take `O=S(=O)(O)c1ccc(N=Nc2c(O)ccc3ccccc23)cc1` [Acid Orange 7, 4-[(2-hydroxy-1-naphthyl)azo]benzene sulphonate]: the solubility in water result is “more than 7 g/L”.
